Assay results reported in patent US5876694A, “Azavesamicols” (priority 1997, dated 1999).

Key:
vesicular ACh transport = settings: earlier studies; cited from earlier work
vesamicol receptor [1] = settings: cited from earlier work; for vesamicol receptor affinity (in words): earlier studies
vesamicol receptor [2] = target: T1, vesamicol receptor (Tetronarce californica, UniProt P81721); assay: Inhibition of [^3 H]vesamicol binding to highly purified synaptic vesicles (electric organ of Torpedo Californica); settings: for in vitro potency (in words): relative to comparator compounds
T1 sequence (P81721 1-515): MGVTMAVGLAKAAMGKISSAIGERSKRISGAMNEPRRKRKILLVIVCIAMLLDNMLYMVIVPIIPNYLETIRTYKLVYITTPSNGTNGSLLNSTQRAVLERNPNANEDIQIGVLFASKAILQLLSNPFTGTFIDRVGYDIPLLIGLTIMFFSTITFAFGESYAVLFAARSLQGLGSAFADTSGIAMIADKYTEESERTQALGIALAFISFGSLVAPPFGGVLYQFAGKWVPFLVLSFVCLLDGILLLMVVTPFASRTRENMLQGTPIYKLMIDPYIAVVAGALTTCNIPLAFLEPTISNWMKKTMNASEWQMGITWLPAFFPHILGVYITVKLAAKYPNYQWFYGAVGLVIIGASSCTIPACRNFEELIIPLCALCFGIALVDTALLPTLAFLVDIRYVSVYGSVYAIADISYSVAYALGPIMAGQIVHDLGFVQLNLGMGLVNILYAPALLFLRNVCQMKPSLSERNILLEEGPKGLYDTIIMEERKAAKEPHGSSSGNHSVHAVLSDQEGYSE
Description: vesicles harvested from the electric organ of Torpedo Californica.
^b Data obtained from Bahr and Parsons (1986).
IC50 values are quoted ±1 standard deviation.
^d Obtained from Efange et al. (1991).

[3] = test system: cholinergic neurotransmission; assay: In vivo anticholinergic activity in mice (spasms, respiratory distress, paralysis, death); design: key to Pharmacological activity in mice: LD: lethal dose; NR: no visible pharmacological reaction; +: visible anticholinergic effects; S: sluggishness and reduced locomotor activity
Procedure: in vivo anticholinergic activity was evaluated in mice. Blockade of cholinergic neurotransmission (or anticholinergic activity) was manifested in a rapidly developing respiratory distress, spasms and paralysis. At lethal doses these symptoms were followed by death within 10 min. As evident in Table 3, several of the compounds tested were lethal at doses as low as 5 and 10 umol/Kg. […] All of the potent compounds belong to the 1,4 series, an observation consistent with the in vitro data discussed above.
^a Group of mice (n = 2) received selected doses of the compounds by
activity: spasms, respiratory distress, paralysis. At lethal doses, death
generally occurred within 10 min following the injection.

vesamicol receptor [4] = settings: rodent brain, cited from earlier work
[5] = Tissue distribution of radiotracer in rats; assay type: in vivo, male Wistar rats
Procedure: Tissue Distribution Experiments
Four groups of male Wistar rats (n=4) weighing 200-350 g were used in these experiments. Each animal received, while under ether anesthesia, an intravenous injection of the radiotracer (3-5 uCi) dissolved in 0.1 mL of 50% aqueous ethanol. At 5, 30, 60 and 180 min post-injection, blood was collected from the anesthetized animal by cardiac puncture, and the animal was immediately sacrificed by cardiectomy. The organs and tissues of interest were harvested, transferred to preweighed tubes and counted in a Beckman gamma counter. The tubes were subsequently reweighed to give the weight of the corresponding tissues. Preweighed tubes containing 1 mL samples of a 1:100 dilution of the injected dose were also counted and used as reference for calculating the tissue accumulation of radioactivity. The accumulation of radiotracer was expressed as a percentage of injected dose per gram of tissue.
The animals were injected intravenously with 4.9 uCi of the radiotracer i
0.1 ml of 50% aq. EtOH.
The animals were injected with 3.7 uCi of the radiotracer in 0.1 ml of 50

vesamicol receptor [6] = assay: Ex vivo autoradiography of rat brain; assay type: in vivo, male Wistar rats; settings: 3 hrs after iv
Procedure: Ex-vivo Autoradiographic Studies
Two groups of male Wistar rats (n=2) were used in these experiments. Each animal in the first group received an i.v. injection of (+)-[^125 I]12h (385 uCi in 0.1/ml of 50% aq. EtOH). Similarly, animals in the second group received 330 uCi of (-)-[^125 I]12h (in 0.1 ml of 50% aq. EtOH). After 3 hrs, the animals were sacrificed by decapitation. The brains were carefully removed, embedded in Tissue Tek OCT medium and frozen to […] Twenty micron thick coronal brain slices were subsequently obtained by sectioning rostrocaudally with a Reichert HistoSTAT microtome at -15°. The tissue sections were apposed to Kodak NMC film accompanied by ^125 I-labeled external standards (^125 I-Microscales from Amersham). For delineation of cytoarchitecture, adjacent tissue sections were subjected to Nissl staining.

O[C@@H]1Cc2ccccc2C[C@H]1N1CCC(c2ccccc2)CC1 (relative stereo) [Compound 2a]
inhibition of vesicular ACh transport / activity (in words) (vesicular ACh transport): potent inhibitors of vesicular ACh transport
vesamicol receptor affinity (in words) (vesamicol receptor [1]): potent ligands

Nc1cccc2c1C[C@@H](N1CCC(c3ccccc3)CC1)[C@H](O)C2 (relative stereo) [Compound 2b]
inhibition of vesicular ACh transport / activity (in words) (vesicular ACh transport): potent inhibitors of vesicular ACh transport
vesamicol receptor affinity (in words) (vesamicol receptor [1]): potent ligands

O[C@H]1CN(Cc2ccccc2Br)CC[C@@H]1N1CCC(c2ccccc2)CC1 (relative stereo) [Compound 11b]
in vitro potency (in words) (vesamicol receptor [2]): slight but noticeable increase in activity
Pharmacological activity in mice ([3]; 5.0 umol/Kg ip): NR
Pharmacological activity in mice ([3]; 10 umol/Kg ip): +

O[C@H]1CCN(Cc2ccccc2)C[C@@H]1N1CCC(c2ccccc2)CC1 (relative stereo) [Compound 12a]
in vitro potency (in words) (vesamicol receptor [2]): increased potency
Pharmacological activity in mice ([3]; 10 umol/Kg ip): LD

O[C@H]1CCN(Cc2ccc(F)cc2)C[C@@H]1N1CCC(c2ccccc2)CC1 (relative stereo) [Compound 12d]
in vitro potency (in words) (vesamicol receptor [2]): enhances potency
Pharmacological activity in mice ([3]; 10 umol/Kg ip): LD

O[C@@H]1CCCC[C@H]1N1CCC(c2ccccc2)CC1 (relative stereo) [[^3 H]vesamicol]
cortical [^3 H]vesamicol binding after lesioning a known cholinergic pathway (in words) (vesamicol receptor [4]; lesion): significant decrease
[^3 H]vesamicol distribution versus other cholinergic markers (in words) (vesamicol receptor [4]): correlate well with other markers of cholinergic innervation

OC1CCN(Cc2cccc([125I])c2)CC1N1CCC(c2ccccc2)CC1 (stereo not drawn) [(+)-[^125 I]12h, (+)- and (-)-4-hydroxy-1-(3-[I^125]iodobenzyl)-3-(4-phenyl-piperidinyl)piperidine]
Ratio brain/blood ([5]; 5 min, iv): 2.33
Ratio heart/blood ([5]; 5 min, iv): 4.68
Tissue distribution, blood ([5]; 5 min, iv): 0.24 % dose/g of tissue
Tissue distribution, brain ([5]; 5 min, iv): 0.57 % dose/g of tissue
Tissue distribution, gonads ([5]; 5 min, iv): 0.13 % dose/g of tissue
Tissue distribution, heart ([5]; 5 min, iv): 1.14 % dose/g of tissue
Tissue distribution, kidney ([5]; 5 min, iv): 2.25 % dose/g of tissue
Tissue distribution, liver ([5]; 5 min, iv): 1.60 % dose/g of tissue
Tissue distribution, lung ([5]; 5 min, iv): 3.67 % dose/g of tissue
Tissue distribution, muscle ([5]; 5 min, iv): 0.34 % dose/g of tissue
Tissue distribution, spleen ([5]; 5 min, iv): 0.76 % dose/g of tissue
Tissue distribution, thyroid ([5]; 5 min, iv): 1.60 % dose/g of tissue
radioactivity in liver, heart, thyroid and spleen (in words) ([5]; 5 min, iv): Moderate to low levels
radioactivity in lung and kidney (in words) ([5]; 5 min, iv): high levels of radioactivity
radioactivity in brain ([5]; 5 min post-injection, iv): 1.06 % of the injected dose
Ratio brain/blood ([5]; 30 min, iv): 3.18
Ratio heart/blood ([5]; 30 min, iv): 2.33
Tissue distribution, blood ([5]; 30 min, iv): 0.12 % dose/g of tissue
Tissue distribution, brain ([5]; 30 min, iv): 0.36 % dose/g of tissue
Tissue distribution, gonads ([5]; 30 min, iv): 0.15 % dose/g of tissue
Tissue distribution, heart ([5]; 30 min, iv): 0.26 % dose/g of tissue
Tissue distribution, kidney ([5]; 30 min, iv): 1.32 % dose/g of tissue
Tissue distribution, liver ([5]; 30 min, iv): 2.18 % dose/g of tissue
Tissue distribution, lung ([5]; 30 min, iv): 1.21 % dose/g of tissue
Tissue distribution, muscle ([5]; 30 min, iv): 0.16 % dose/g of tissue
Tissue distribution, spleen ([5]; 30 min, iv): 1.07 % dose/g of tissue
Tissue distribution, thyroid ([5]; 30 min, iv): 2.33 % dose/g of tissue
Ratio brain/blood ([5]; 60 min, iv): 3.08
Ratio heart/blood ([5]; 60 min, iv): 1.70
Tissue distribution, blood ([5]; 60 min, iv): 0.09 % dose/g of tissue
Tissue distribution, brain ([5]; 60 min, iv): 0.27 % dose/g of tissue
Tissue distribution, gonads ([5]; 60 min, iv): 0.17 % dose/g of tissue
Tissue distribution, heart ([5]; 60 min, iv): 0.15 % dose/g of tissue
Tissue distribution, kidney ([5]; 60 min, iv): 0.87 % dose/g of tissue
Tissue distribution, liver ([5]; 60 min, iv): 1.91 % dose/g of tissue
Tissue distribution, lung ([5]; 60 min, iv): 0.82 % dose/g of tissue
Tissue distribution, muscle ([5]; 60 min, iv): 0.11 % dose/g of tissue
Tissue distribution, spleen ([5]; 60 min, iv): 0.86 % dose/g of tissue
Tissue distribution, thyroid ([5]; 60 min, iv): 4.59 % dose/g of tissue
radioactivity in brain ([5]; 60 min post-injection, iv): 0.51 % of the injected dose
Ratio brain/blood ([5]; 180 min, iv): 2.35
Ratio heart/blood ([5]; 180 min, iv): 1.60
Tissue distribution, blood ([5]; 180 min, iv): 0.07 % dose/g of tissue
Tissue distribution, brain ([5]; 180 min, iv): 0.15 % dose/g of tissue
Tissue distribution, gonads ([5]; 180 min, iv): 0.16 % dose/g of tissue
Tissue distribution, heart ([5]; 180 min, iv): 0.10 % dose/g of tissue
Tissue distribution, kidney ([5]; 180 min, iv): 0.50 % dose/g of tissue
Tissue distribution, liver ([5]; 180 min, iv): 1.18 % dose/g of tissue
Tissue distribution, lung ([5]; 180 min, iv): 0.39 % dose/g of tissue
Tissue distribution, muscle ([5]; 180 min, iv): 0.08 % dose/g of tissue
Tissue distribution, spleen ([5]; 180 min, iv): 0.44 % dose/g of tissue
Tissue distribution, thyroid ([5]; 180 min, iv): 13.13 % dose/g of tissue
radioactivity in brain ([5]; 3 hrs post-injection, iv): 0.39 % of the injected dose
radioactivity in thyroid (in words) ([5]; beginning to 3 hrs post-injection): moderate at the beginning but increased significantly by 3 hrs post-injection
brain regional distribution: cortex, hippocampus and cerebellum (vesamicol receptor [6]): Moderate levels of activity
brain regional distribution: interpeduncular nucleus, olfactory tubercle, nucleus accumbens, amygdala, caudate-putamen, nuclei of fifth and seventh cranial nerves (vesamicol receptor [6]): high levels of radioactivity

O=C(c1ccccc1)N1CC[C@@H](O)[C@H](N2CCC(c3ccccc3)CC2)C1 [(-)-10a]
IC50 (vesamicol receptor [2]; inhibition of [^3 H]vesamicol binding, hydrochlorides, ±1 standard deviation): 100 ± 30 nM
Pharmacological activity in mice ([3]; 5.0 umol/Kg ip): +

OCCN1CCC(c2ccccc2)CC1 [Compound 4a]
inhibition of vesicular ACh transport / activity (in words) (vesicular ACh transport): substantially diminished activity

CCC(O)CN1CCC(c2ccccc2)CC1 (centres unmarked) [Compound 4b]
inhibition of vesicular ACh transport / activity (in words) (vesicular ACh transport): substantially diminished activity
increase in activity (vesamicol receptor [1]; 4b relative to 4a): 30 fold
